These results are taken from patent publication US9335538B2, “Electrowetting display device and dye composition for electrowetting display” (FUJIFILM CORPORATION, priority 2012, dated 2016).

SMILES strings stand for the structures.

Assay type in all cases: physicochemical
The nature of data set [1]: Absorption maximum wavelength, absorbance and absorption coefficient of colored solution (visible absorptiometer). As to conditions: 0.01% by mass normal decane solution. Here is the method: (§1) A methine dye (the above-described exemplary compounds 5, 15, and 23 shown in Table 1 below were prepared) and normal decane (n-decane) which is an organic solvent were mixed. In this way, three kinds of 0.01% by mass normal decane solutions (colored compositions) each colored with a methine dye were prepared.
(§2) With regard to each of the colored solutions thus prepared, the hue, absorption maximum wavelength (λmax), absorbance (abs), and absorption coefficient (∈) were measured and evaluated according to the methods described below. Further, with regard to each of the dyes described below, the solubility (% by mass) with respect to normal hexane (n-hexane) was measured and evaluated according to the method described below.
(2) Absorption Maximum Wavelength, Absorbance, and Absorption Coefficient
With regard to the colored solutions (colored compositions), the absorption maximum wavelength (λmax) and the absorbance were measured using a visible absorptiometer (trade name: UV-1800PC, manufactured by Shimadzu Corp.), and the absorption coefficient (∈) was calculated based on the Lambert-Beer law.

Data set [2] is described as follows: Hue of colored solution, visual observation. As to conditions: 0.01% by mass normal decane solution, visually observed. The method, then:
as §1, §2
(1) Hue Each of the colored solutions (colored compositions) was visually observed, and the hue thereof was judged.

Data set [3] is described as follows: Solubility with respect to hexane. Here is the method: (3) Solubility with Respect to Hexane
The solubility of each methine dye with respect to normal hexane (n-hexane) which is a nonpolar solvent was measured in a manner as described below.
The dye was dissolved in normal hexane heated to 50° C. to prepare a saturated solution. Thereafter, the saturated solution thus obtained was left for one hour under an environment of 25° C. and 0.1 MPa.

In the case of `CCCCCCC(Oc1ccc(C(C)(C)CC)cc1C(C)(C)CC)C(=O)NCC(C)c1nc2/c(=C\c3c(C)nn4nc(C(C)CNC(=O)C(CCCCCC)Oc5ccc(C(C)(C)CC)cc5C(C)(C)CC)[nH]c34)c(C)nn2n1` (stereo not drawn) [Exemplary compound 5], in data set [1], the “Absorbance (abs)” value was found to be 0.525 and the “Absorption maximum wavelength (λmax)” value is 441 nm. The “Absorption coefficient (ε)” value in data set [1] (calculated based on the Lambert-Beer law) is listed as 3.20 × 10^4. In addition, the Color of solution entry in data set [2] is recorded as “yellow”. The “solubility with respect to hexane (in words)” value in data set [3] (hexane, a hydrocarbon solvent) is given as “high solubility”. Besides, the “Solubility in hexane (%)” value in data set [3] (n-hexane, 25° C. and 0.1 MPa, % by mass) is 40 or more %.
